Measurements from patent US4769377A, “Adenosine receptor antagonists” (priority 1986, dated 1988).
In brackets after ≈: the same amount, converted by molar mass. Entries after “also recorded” stand apart in the source; their conditions may differ. Read-outs that look alike come from different tables or passages of the source.

Assays:
[1] = molecular target: T1, adenosine A1 receptors (Bos taurus, UniProt P28190); assay: biochemical;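 also: Filter-bound radioactivity read by liquid scintillation counting, with dose-inhibition curves built from 4–8 test concentrations, each run in triplicate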
T1 sequence (P28190 1-326): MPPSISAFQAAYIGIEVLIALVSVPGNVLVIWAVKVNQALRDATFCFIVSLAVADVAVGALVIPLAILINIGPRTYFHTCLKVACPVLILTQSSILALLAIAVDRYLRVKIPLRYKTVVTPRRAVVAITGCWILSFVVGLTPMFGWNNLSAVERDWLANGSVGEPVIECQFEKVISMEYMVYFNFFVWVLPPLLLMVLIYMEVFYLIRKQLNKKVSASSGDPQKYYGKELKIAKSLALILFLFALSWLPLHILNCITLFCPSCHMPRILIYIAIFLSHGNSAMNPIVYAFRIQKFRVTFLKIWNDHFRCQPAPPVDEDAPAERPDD
Description: (§1) Incubation was terminated and samples were collected on GF/B filters under vacuum, washed three times, and counted in a liquid scintillation counter. Dose-inhibition curves were generated with four to eight concentrations of the test compound in triplicate incubations.

[2] = molecular target: T1, adenosine A1 receptors; assay: inhibition of [^3 H]CHA binding to A1 adenosine receptors in bovine brain membranes;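 also: Filter-bound radioactivity read by liquid scintillation counting, with dose-inhibition curves built from 4–8 test concentrations, each run in triplicate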
Description: as §1

[3] = Solubility of 8-phenylxanthines; type: physicochemical
[4] = molecular target: T2, A1 receptor in rat brain (Rattus norvegicus, UniProt P25099); assay: A1 receptor affinity in rat brain; type: binding
T2 construct: from tissue; host or cells: rat brain
T2 sequence (P25099 1-326): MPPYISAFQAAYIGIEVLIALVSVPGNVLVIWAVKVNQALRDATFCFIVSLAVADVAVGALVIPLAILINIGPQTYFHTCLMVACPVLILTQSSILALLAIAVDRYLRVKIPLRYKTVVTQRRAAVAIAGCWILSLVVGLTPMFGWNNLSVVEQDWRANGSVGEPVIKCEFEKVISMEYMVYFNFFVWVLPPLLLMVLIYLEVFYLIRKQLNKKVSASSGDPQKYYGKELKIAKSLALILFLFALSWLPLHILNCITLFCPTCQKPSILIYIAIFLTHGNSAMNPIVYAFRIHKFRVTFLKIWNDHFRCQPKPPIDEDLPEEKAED

[5] = hydrophobicity; type: physicochemical
[6] = molecular target: T1, adenosine A1 receptors
Description: as §1

[7] = Table II, vs [^3 H-CHA] in bovine brain
[8] = Table I, vs [^3 H]-cyclohexyladenosine, bovine brain

**Q.** Which Ki [1] does the source give for `CCn1c(=O)c2[nH]c(-c3ccc(Cl)cc3N)nc2n(CC)c1=O` [1,3-diethyl-8-(2-amino-4-chlorophenyl)X, 1,3-diethyl-8-(2-amino-4-chlorophenyl)xanthine] here?
**A.** 0.32 nM

**Q.** And the IC50 [2, 7]?
**A.** 0.8 nM

**Q.** With `CCn1c(=O)c2[nH]c(-c3ccccc3)nc2n(CC)c1=O` [1,3-diethyl-8-phenylX, 1,3-diethyl-8-phenylxanthine] as the compound, how does the solubility ([3]; water, read-out: soluble in water at) read?
**A.** 3 µM (≈ 0.853 µg/mL)

**Q.** With `Cn1c(=O)c2[nH]c(-c3ccc([N+](=O)[O-])cc3N)nc2n(C)c1=O` [8-(2-amino-4-nitrophenyl)T] as the compound, how does the Ki [1] read?
**A.** 1.2 nM

**Q.** And the IC50 [2, 7]?
**A.** 2.5 nM

**Q.** For `Cn1c(=O)c2nc(-c3ccccc3N)[nH]c2n(C)c1=O` [B87, 8-(o-aminophenyl)theophylline], which IC50 [2] is on record?
**A.** 5 nM

**Q.** What about the Ki [2] of the same compound?
**A.** 2.3 nM

**Q.** Which IC50 [2] does the source give for `Cn1c(=O)c2[nH]c(-c3ccc(N)cc3)nc2n(C)c1=O` [B211, 8-(p-aminophenyl)theophylline] here?
**A.** 1.7 nM

**Q.** What about the Ki [2] of the same compound?
**A.** 0.69 nM

**Q.** For `Cn1c(=O)c2[nH]c(-c3ccc(N)cc3N)nc2n(C)c1=O` [B232, 8-(2,4-diaminophenyl)theophylline], which Ki [1] is on record?
**A.** 5.9 nM

**Q.** And the IC50 [2, 8]?
**A.** 8 nM

**Q.** Which Ki [1] does the source give for `Cn1c(=O)c2[nH]c(-c3ccc(Cl)cc3N)nc2n(C)c1=O` [B246, 8-(2-Amino-4-Chlorophenyl) Theophylline] here?
**A.** 0.2 nM

**Q.** What about the IC50 [2] of the same compound?
**A.** 0.15 nM

**Q.** And the “adenosine receptor blocking activity (in words)” value ([2]; bovine brain)?
**A.** significantly lower

**Q.** Which results are given for `CCCn1c(=O)c2[nH]c(-c3ccccc3)nc2n(CCC)c1=O` [B255, 1,3-Dipropyl-8-Phenylxanthine]?
**A.** IC50 [2]: 0.3 nM; Ki [2]: 0.12 nM; adenosine receptor blocking activity (in words) ([2]; bovine brain): significantly lower; times more potent than theophylline ([2]; bovine brain): about 10,000 times

**Q.** Which solubility ([3]; dmf, organic solvent or mixture, read-out: soluble in DMF at) does the source give for `CCCn1c(=O)c2[nH]c(-c3ccc(Cl)cc3N)nc2n(CCC)c1=O` [B256, 1,3-dipropyl-8-(2-amino-4-chlorophenyl)xanthine] here?
**A.** 30000 µM (≈ 10900 µg/mL)

**Q.** And the solubility ([3]; ethanol, organic solvent or mixture, read-out: soluble in ethanol at)?
**A.** 1000 µM (≈ 362 µg/mL)

**Q.** What about the solubility ([3]; hot 0.1n koh, read-out: soluble in hot 0.1N KOH at) of the same compound?
**A.** 1000 µM (≈ 362 µg/mL)

**Q.** What about the “water solubility (in words)” value ([3]; water) of the same compound?
**A.** very water-insoluble

**Q.** What about the Ki [4] of the same compound?
**A.** 5 nM

**Q.** What about the “more potent than 8-phenyltheophylline using rat brain” value [4] of the same compound?
**A.** about 30 fold

**Q.** And the “more potent than theophylline using rat brain” value [4]?
**A.** ~2000 fold

**Q.** What about the “hydrophobicity (in words)” value [5] of the same compound?
**A.** hydrophobic

**Q.** What about the IC50 [2, 8] of the same compound?
**A.** 0.05 nM

**Q.** And the “activity relative to most active prior art compound (B70)” value ([2]; bovine brain)?
**A.** ~16 times

**Q.** And the “adenosine receptor blocking activity (in words)” value ([2]; bovine brain)?
**A.** significantly lower; also recorded: extremely potent; also recorded: particularly outstanding activity

**Q.** What about the “times more potent than xanthine” value ([2]; bovine brain) of the same compound?
**A.** approximately 4,000,000 times

**Q.** And the Ki ([2]; read-out: Ki for adenosine A1 receptors, bovine brain)?
**A.** 0.022 nM

**Q.** What about the Ki [6] of the same compound?
**A.** 0.022 nM

**Q.** For `CCCn1c(=O)c2nc(-c3ccc(N)cc3N)[nH]c2n(CCC)c1=O` [B262, 1,3-Dipropyl-8-(2,4-Diaminophenyl) Xanthine], which “water solubility (in words)” value ([3]; water) is on record?
**A.** much greater water solubility

**Q.** And the Ki [1]?
**A.** 0.14 nM

**Q.** What about the IC50 [2] of the same compound?
**A.** 0.2 nM

**Q.** What about the “activity relative to most active prior art compound (B70)” value ([2]; bovine brain) of the same compound?
**A.** four-fold greater

**Q.** What about the “adenosine receptor blocking activity (in words)” value ([2]; bovine brain) of the same compound?
**A.** substantially less active than B256; also recorded: particularly outstanding activity

**Q.** What about the “adenosine receptor blocking activity (in words)” value ([2]; bovine brain, listed as 262) of the same compound?
**A.** significantly lower

**Q.** With `Nc1ncnc2nc[nH]c12` [adenine] as the compound, how does the IC50 [2] read?
**A.** 800000 nM

**Q.** Which IC50 [2] does the source give for `O=c1nc2[nH]c3ccccc3nc-2c(=O)[nH]1` [alloxazine] here?
**A.** 1500 nM

**Q.** What does the source list for `Cn1c(=O)c2c(ncn2C)n(C)c1=O` [caffeine]?
**A.** IC50 [2]: 20000 nM; Ki [2]: 11000 nM

**Q.** With `O=c1[nH]c(=O)c2[nH]cnc2[nH]1` [xanthine] as the compound, how does the IC50 [2] read?
**A.** 200000 nM

**Q.** And the Ki [2]?
**A.** 99000 nM
